Experimental data published in PubChem BioAssay AID1671244.

Biological target: Casein kinase I isoform delta (Homo sapiens) (UniProt P48730)
Test: inhibition of CK1 delta activity – biochemical, Z'-LYTE, FRET, direct format, dose response (AID 1671244)
Conditions: recombinant CK1 delta

Sequence of Casein kinase I isoform delta (Homo sapiens) (P48730 whole entry, looked up, canonical isoform): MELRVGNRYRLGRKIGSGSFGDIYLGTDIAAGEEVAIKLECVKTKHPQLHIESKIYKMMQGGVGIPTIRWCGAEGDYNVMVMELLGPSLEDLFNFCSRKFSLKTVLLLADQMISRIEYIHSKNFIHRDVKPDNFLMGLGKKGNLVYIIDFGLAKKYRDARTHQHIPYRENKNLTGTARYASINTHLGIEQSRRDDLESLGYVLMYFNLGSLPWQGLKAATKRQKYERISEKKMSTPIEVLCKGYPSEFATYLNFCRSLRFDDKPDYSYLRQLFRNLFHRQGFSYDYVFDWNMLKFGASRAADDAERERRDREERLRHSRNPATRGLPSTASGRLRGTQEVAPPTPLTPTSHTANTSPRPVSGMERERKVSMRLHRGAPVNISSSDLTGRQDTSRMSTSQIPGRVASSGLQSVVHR

With Brc1c(Br)c(Br)c2n[nH]nc2c1Br the IC50 was 3.68 µM.
